According to patent US20260091147A1, “METHOD FOR DETECTING INNATE IMMUNE ACTION IN VIVO USING GPR84-PET” (The Board of Trustees of the Leland Standford Junior …, priority 2023, published 2026):

Molecular target: T1, GPR84 (Mus musculus, UniProt Q8CIM5)
T1 construct: tissue Jackson Laboratories; host or cells: female C57BL/6J mice (LPS, saline, EAE or naive): brain, spinal cord and peripheral organs
Assay: Dynamic PET/CT of brain in LPS-induced systemic inflammation vs saline, with or without GLPG1205 block
Assay type: in vivo
Settings: LPS 10 mg/kg, 24 h
Protocol: To determine KD of GLPG38, a competitive binding assay was performed using a membrane preparation from cells expressing GPR84-Gi in addition to [^3H]G9543, a known GPR84 antagonist. [^11C]GLPG38 was then radiosynthesized via [^11C]methylation of desmethyl precursor using [^11C]methyl iodide. […] Dynamic 60 min PET/CT imaging was performed 24 hr following LPS-administration using [^11C]GLPG38. Subsequently, mice were perfused with PBS to remove blood, and radioactive signal was assessed in CNS and peripheral tissues via gamma counting. Ex vivo autoradiography of sagittal mouse brain sections was conducted to obtain high resolution images of [^11C]GLPG38 binding. To investigate alterations in GPR84 mRNA expression, quantitative polymerase-chain reaction was performed using mouse brain tissue and human monocyte-derived macrophage cells stimulated with LPS 24 hr prior to RNA extraction.
The count densities were averaged for all volumes of interest at each time point to obtain a time-activity curve (TAC). The TACs were normalized to injected dose, as measured by a CRC-15 PET dose calibrator (Capintec Inc.), and expressed as % injected dose per gram (% ID/g), assuming 1 g/mL. CT was performed in GNEXT depth of interaction (DOI) dual-layer detector system. Scintica VivoQuant software was used to visualize radiotracer uptake and define the 3D volumes of interest. 3D maximum intensity projection (MIP) PET/CT images were created using IRW software.
A range of doses (0.65, 0.75, and 0.90 mg/kg) of GLPG1205 were used to investigate whether the blocking was dose-dependent. […] GLPG1205 was injected intra-venously 10 min prior to radiotracer injection (n=4).

T1 sequence (Q8CIM5 whole entry): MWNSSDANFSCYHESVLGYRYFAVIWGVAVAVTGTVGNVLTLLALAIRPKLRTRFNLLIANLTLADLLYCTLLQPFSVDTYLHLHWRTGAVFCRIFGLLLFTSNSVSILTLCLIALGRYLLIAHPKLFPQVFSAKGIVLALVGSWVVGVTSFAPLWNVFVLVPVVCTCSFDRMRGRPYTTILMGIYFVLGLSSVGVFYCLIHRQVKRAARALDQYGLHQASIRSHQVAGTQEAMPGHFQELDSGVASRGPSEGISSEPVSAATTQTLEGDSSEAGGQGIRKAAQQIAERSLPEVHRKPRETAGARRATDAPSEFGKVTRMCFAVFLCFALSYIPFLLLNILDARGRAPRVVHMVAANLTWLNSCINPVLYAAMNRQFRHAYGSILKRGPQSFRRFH

For Cc1cc2c(cc1O[11CH3])CCn1c-2c(C)c(OC[C@@H]2COCCO2)cc1=O [[^11C]GLPG38], the “brain PET signal in LPS-treated vs saline-treated mice at 40-60 min post injection” value was “significantly elevated”.
